Several values for one entry are separate records, joined by “and”; a condition that tells them apart may be missing. Identical values can stand only once.
Columns and labels:
E. coli = test: Checkerboard assay LEI-800 with CIP; type: cell-based, Escherichia coli;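 also: bacterial growth read as OD600 after 20 h at 37 °C with shaking, each drug pair tested in triplicate wells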
E. coli DNA gyrase = biological target: T1, E. coli DNA gyrase (Escherichia coli, UniProt P0AES4); test: Gyrase supercoiling inhibition, gel-based; type: biochemical
T1 construct: purchased Inspiralis Limited
T1 sequence (P0AES4 whole entry): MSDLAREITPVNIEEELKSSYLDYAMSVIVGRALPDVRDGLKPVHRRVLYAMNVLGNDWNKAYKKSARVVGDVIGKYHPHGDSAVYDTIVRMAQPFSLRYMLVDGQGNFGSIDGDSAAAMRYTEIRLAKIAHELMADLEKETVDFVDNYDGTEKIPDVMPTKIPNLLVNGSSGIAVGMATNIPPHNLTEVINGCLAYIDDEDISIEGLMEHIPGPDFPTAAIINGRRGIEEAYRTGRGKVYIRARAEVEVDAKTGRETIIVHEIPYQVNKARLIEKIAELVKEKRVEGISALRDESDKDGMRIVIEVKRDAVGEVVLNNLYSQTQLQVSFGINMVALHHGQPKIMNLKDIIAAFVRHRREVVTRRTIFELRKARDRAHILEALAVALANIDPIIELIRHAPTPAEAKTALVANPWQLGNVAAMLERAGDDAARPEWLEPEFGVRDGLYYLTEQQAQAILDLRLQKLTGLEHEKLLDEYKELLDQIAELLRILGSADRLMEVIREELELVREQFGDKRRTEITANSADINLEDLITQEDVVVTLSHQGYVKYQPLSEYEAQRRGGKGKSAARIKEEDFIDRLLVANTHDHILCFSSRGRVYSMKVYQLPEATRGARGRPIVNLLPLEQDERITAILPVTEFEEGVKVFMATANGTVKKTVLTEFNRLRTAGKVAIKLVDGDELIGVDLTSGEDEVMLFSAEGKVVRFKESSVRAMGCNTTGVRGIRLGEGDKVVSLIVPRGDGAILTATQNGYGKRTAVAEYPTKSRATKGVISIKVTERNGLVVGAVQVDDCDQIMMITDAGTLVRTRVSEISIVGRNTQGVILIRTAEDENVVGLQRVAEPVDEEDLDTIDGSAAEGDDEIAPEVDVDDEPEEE
Experimental: Of this stock solution, 27 µl was aliquoted for each reaction in 1.5 ml Eppendorf tubes and supplemented with 0.6 µl of the appropriate compound dilution or corresponding solvent with a final DMSO concentration of 2%. The reactions were started with 3 µl of enzyme (1 U for WT gyrase retrieved from Inspiralis Limited or 25–30 nM gyrase variants purified in house) in dilution buffer (50 mM Tris–HCl (pH 7.5), 100 mM KCl, 2 mM DTT, 1 mM EDTA and 50% (wt/vol) glycerol) for a final volume of 30 µl. Reactions were run at 37 °C for 30 min and stopped with the addition of 30 µl STEB buffer (40% (wt/vol) sucrose, 100 mM Tris–HCl pH 8, 100 mM EDTA, 0.5 mg ml^−1 bromophenol blue) and 30 µl of a chloroform:isoamyl alcohol solution (24:1 vol/vol). After brief vortexing and centrifugation at 2,300g for 1 min, 20 µl of the aqueous phase was loaded onto 1% (wt/vol) agarose gels in TAE ([…]) gel. The gels were run at 85 V for 2 h followed by staining (15 min) in 1 µg ml^−1 ethidium bromide and destaining (5–10 min) in water. […] IC50 curves were generated in GraphPad Prism (v9.0.0) using the non-linear regression curve fit variable slope with four parameters and least squares regression. A. baumannii and P. aeruginosa gyrase supercoiling inhibition assays were set up in the same way as E. coli gyrase supercoiling assays. The enzyme was retrieved from Inspiralis Ltd. (PAG1001 and ABG1001) and tested in-house for activity with ×5 U enzyme used for each reaction.

[1] = Ciprofloxacin 0.78125 nM + LEI-800 0 µM
[2] = Ciprofloxacin 0.78125 nM + LEI-800 0.1 µM
[3] = Ciprofloxacin 0.78125 nM + LEI-800 0.2 µM
[4] = Ciprofloxacin 0.78125 nM + LEI-800 0.4 µM
[5] = Ciprofloxacin 0.78125 nM + LEI-800 0.8 µM
[6] = Ciprofloxacin 0.78125 nM + LEI-800 3.1 µM
[7] = Ciprofloxacin 0.78125 nM + LEI-800 6.2 µM
[8] = Ciprofloxacin 1.5625 nM + LEI-800 0 µM
[9] = Ciprofloxacin 1.5625 nM + LEI-800 0.1 µM
[10] = Ciprofloxacin 1.5625 nM + LEI-800 0.2 µM
[11] = Ciprofloxacin 1.5625 nM + LEI-800 0.4 µM
[12] = Ciprofloxacin 1.5625 nM + LEI-800 0.8 µM
[13] = Ciprofloxacin 1.5625 nM + LEI-800 3.1 µM
[14] = Ciprofloxacin 1.5625 nM + LEI-800 6.2 µM
[15] = Ciprofloxacin 12.5 nM + LEI-800 0.2 µM
[16] = Ciprofloxacin 12.5 nM + LEI-800 0.4 µM
[17] = Ciprofloxacin 25 nM + LEI-800 0 µM
[18] = Ciprofloxacin 25 nM + LEI-800 0.1 µM
[19] = Ciprofloxacin 25 nM + LEI-800 0.2 µM
[20] = Ciprofloxacin 25 nM + LEI-800 0.4 µM
[21] = Ciprofloxacin 25 nM + LEI-800 0.8 µM
[22] = Ciprofloxacin 25 nM + LEI-800 3.1 µM
[23] = Ciprofloxacin 25 nM + LEI-800 6.2 µM
[24] = Ciprofloxacin 50 nM + LEI-800 0 µM
[25] = Ciprofloxacin 50 nM + LEI-800 0.1 µM
[26] = Ciprofloxacin 50 nM + LEI-800 0.2 µM
[27] = Ciprofloxacin 50 nM + LEI-800 0.4 µM
[28] = Ciprofloxacin 50 nM + LEI-800 0.8 µM
[29] = Ciprofloxacin 50 nM + LEI-800 3.1 µM
[30] = Ciprofloxacin 50 nM + LEI-800 6.2 µM

## O=C(O)c1cn(C2CC2)c2cc(N3CCNCC3)c(F)cc2c1=O [CIP, ciprofloxacin]
E. coli; [1]
  checkerboard plate reading, Average values: 0.83
  checkerboard plate reading, replicate wells: 0.8643 and 0.836 and 0.7898
E. coli; [2]
  checkerboard plate reading, Average values: 0.7281
  checkerboard plate reading, replicate wells: 0.7059 and 0.7562 and 0.7221
E. coli; [3]
  checkerboard plate reading, Average values: 0.6917
  checkerboard plate reading, replicate wells: 0.6798 and 0.723 and 0.6723
E. coli; [4]
  checkerboard plate reading, Average values: 0.6669
  checkerboard plate reading, replicate wells: 0.6638 and 0.6554 and 0.6815
E. coli; [5]
  checkerboard plate reading, Average values: 0.5857
  checkerboard plate reading, replicate wells: 0.6064 and 0.5755 and 0.5753
E. coli; [6]
  checkerboard plate reading, Average values: 0.2755
  checkerboard plate reading, replicate wells: 0.2688 and 0.2609 and 0.2967
E. coli; [7]
  checkerboard plate reading, Average values: 0.1492
  checkerboard plate reading, replicate wells: 0.1443 and 0.151 and 0.1523
E. coli; Ciprofloxacin 0.78125 nM + LEI-800 […]
  checkerboard plate reading, Average values: 0.4707
E. coli; [8]
  checkerboard plate reading, Average values: 0.8174
  checkerboard plate reading, replicate wells: 0.9018 and 0.7912 and 0.7592
E. coli; [9]
  checkerboard plate reading, Average values: 0.71
  checkerboard plate reading, replicate wells: 0.7109 and 0.704 and 0.715
E. coli; [10]
  checkerboard plate reading, Average values: 0.6776
  checkerboard plate reading, replicate wells: 0.667 and 0.7085 and 0.6572
E. coli; [11]
  checkerboard plate reading, Average values: 0.6371
  checkerboard plate reading, replicate wells: 0.6099 and 0.644 and 0.6575
E. coli; [12]
  checkerboard plate reading, Average values: 0.5615
  checkerboard plate reading, replicate wells: 0.5364 and 0.5772 and 0.571
E. coli; [13]
  checkerboard plate reading, Average values: 0.2706
  checkerboard plate reading, replicate wells: 0.2674 and 0.2638 and 0.2807
E. coli; [14]
  checkerboard plate reading, Average values: 0.1458
  checkerboard plate reading, replicate wells: 0.1385 and 0.1476 and 0.1513
E. coli; Ciprofloxacin 1.5625 nM + LEI-800 […]
  checkerboard plate reading, Average values: 0.4578
E. coli; Ciprofloxacin 3.125 nM + LEI-800 0 µM
  checkerboard plate reading, Average values: 0.7916
E. coli; Ciprofloxacin 3.125 nM + LEI-800 0.1 µM
  checkerboard plate reading, Average values: 0.7539
E. coli; Ciprofloxacin 3.125 nM + LEI-800 0.2 µM
  checkerboard plate reading, Average values: 0.6934
E. coli; Ciprofloxacin 3.125 nM + LEI-800 0.4 µM
  checkerboard plate reading, Average values: 0.6265
E. coli; Ciprofloxacin 3.125 nM + LEI-800 0.8 µM
  checkerboard plate reading, Average values: 0.5829
E. coli; Ciprofloxacin 3.125 nM + LEI-800 3.1 µM
  checkerboard plate reading, Average values: 0.2713
E. coli; Ciprofloxacin 3.125 nM + LEI-800 6.2 µM
  checkerboard plate reading, Average values: 0.1411
E. coli; Ciprofloxacin 3.125 nM + LEI-800 […]
  checkerboard plate reading, Average values: 0.464
E. coli; Ciprofloxacin 6.25 nM + LEI-800 0 µM
  checkerboard plate reading, Average values: 0.8039
E. coli; Ciprofloxacin 6.25 nM + LEI-800 0.1 µM
  checkerboard plate reading, Average values: 0.6899
E. coli; Ciprofloxacin 6.25 nM + LEI-800 0.2 µM
  checkerboard plate reading, Average values: 0.6258
E. coli; Ciprofloxacin 6.25 nM + LEI-800 0.4 µM
  checkerboard plate reading, Average values: 0.6515
E. coli; Ciprofloxacin 6.25 nM + LEI-800 0.8 µM
  checkerboard plate reading, Average values: 0.573
E. coli; Ciprofloxacin 6.25 nM + LEI-800 3.1 µM
  checkerboard plate reading, Average values: 0.2841
E. coli; Ciprofloxacin 6.25 nM + LEI-800 6.2 µM
  checkerboard plate reading, Average values: 0.1541
E. coli; Ciprofloxacin 6.25 nM + LEI-800 […]
  checkerboard plate reading, Average values: 0.4469
E. coli; Ciprofloxacin 12.5 nM + LEI-800 0 µM
  checkerboard plate reading, Average values: 0.8165
E. coli; Ciprofloxacin 12.5 nM + LEI-800 0.1 µM
  checkerboard plate reading, Average values: 0.6889
E. coli; [15]
  checkerboard plate reading, Average values: 0.6272
  checkerboard plate reading, replicate wells: 0.6163
E. coli; [16]
  checkerboard plate reading, Average values: 0.6342
  checkerboard plate reading, replicate wells: 0.6092 and 0.6266 and 0.6669
E. coli; Ciprofloxacin 12.5 nM + LEI-800 0.8 µM
  checkerboard plate reading, Average values: 0.6048
E. coli; Ciprofloxacin 12.5 nM + LEI-800 3.1 µM
  checkerboard plate reading, Average values: 0.2553
E. coli; Ciprofloxacin 12.5 nM + LEI-800 6.2 µM
  checkerboard plate reading, Average values: 0.142
E. coli; Ciprofloxacin 12.5 nM + LEI-800 […]
  checkerboard plate reading, Average values: 0.4663
E. coli; [17]
  checkerboard plate reading, Average values: 0.8434
  checkerboard plate reading, replicate wells: 0.9002 and 0.8407 and 0.7891
E. coli; [18]
  checkerboard plate reading, Average values: 0.7231
  checkerboard plate reading, replicate wells: 0.7425 and 0.7229 and 0.7038
E. coli; [19]
  checkerboard plate reading, Average values: 0.6746
  checkerboard plate reading, replicate wells: 0.7088 and 0.6616 and 0.6533
E. coli; [20]
  checkerboard plate reading, Average values: 0.6549
  checkerboard plate reading, replicate wells: 0.6481 and 0.6316 and 0.685
E. coli; [21]
  checkerboard plate reading, Average values: 0.6861
  checkerboard plate reading, replicate wells: 0.7976 and 0.6273 and 0.6333
E. coli; [22]
  checkerboard plate reading, Average values: 0.2871
  checkerboard plate reading, replicate wells: 0.2705 and 0.2575 and 0.3334
E. coli; [23]
  checkerboard plate reading, Average values: 0.1517
  checkerboard plate reading, replicate wells: 0.149 and 0.1483 and 0.1579
E. coli; Ciprofloxacin 25 nM + LEI-800 […]
  checkerboard plate reading, Average values: 0.5325
E. coli; [24]
  checkerboard plate reading, Average values: 0.8946
  checkerboard plate reading, replicate wells: 0.9376 and 0.8747 and 0.8715
E. coli; [25]
  checkerboard plate reading, Average values: 0.7443
  checkerboard plate reading, replicate wells: 0.7759 and 0.7241 and 0.7328
E. coli; [26]
  checkerboard plate reading, Average values: 0.6725
  checkerboard plate reading, replicate wells: 0.6624 and 0.6684 and 0.6868
E. coli; [27]
  checkerboard plate reading, Average values: 0.6531
  checkerboard plate reading, replicate wells: 0.6441 and 0.64 and 0.6751
E. coli; [28]
  checkerboard plate reading, Average values: 0.7311
  checkerboard plate reading, replicate wells: 0.701 and 0.7232 and 0.7691
E. coli; [29]
  checkerboard plate reading, Average values: 0.2841
  checkerboard plate reading, replicate wells: 0.2522 and 0.2675 and 0.3325
E. coli; [30]
  checkerboard plate reading, Average values: 0.151
  checkerboard plate reading, replicate wells: 0.1483 and 0.1495 and 0.1553
E. coli; Ciprofloxacin 50 nM + LEI-800 […]
  checkerboard plate reading, Average values: 0.6545

## O=S(=O)(NC[C@H]1CC[C@@H](c2ccc(-c3ccc(F)nc3)cc2)N1)c1cccc2cnccc12 [LEI-801]
E. coli DNA gyrase
  IC50: 440 nM
E. coli DNA gyrase; supercoiling IC50 ratio
  fold less potent than LEI-800: 13 fold

— article PMC11374673, “Discovery of isoquinoline sulfonamides as allosteric gyrase inhibitors with activity against fluoroquinolone-resistant bacteria” (Nature Chemistry, 2024)
